# Results published in patent US20070117743A1, “New antitumoral compounds” (priority 2003, published 2007).
# Where a SMILES comes first, the peptide text is derived from it. Bridges are numbered along the chain shown (N, C = ends). [ ]: non-standard residue; d: D form. The star is where a group is joined. d(aIle) = CC[C@H](C)[C@@H](N)C(=O)O; d(aThr) = C[C@@H](O)[C@@H](N)C(=O)O; Hexanoyl(5-Me) = CC(C)CCCC(=O)*; Orn = NCCC[C@H](N)C(=O)O; Dhb = C/C=C(\N)C(=O)O
# Columns and labels:
# Type in all cases: cell-based, human
# [1] = system: K-562; experiment: SRB colorimetric assay of cell growth and viability, K-562; conditions: 48 hours exposure; for CC50: read-out: LC50 K-562
# [2] = system: PANC-1; experiment: SRB colorimetric assay of cell growth and viability, PANC-1; conditions: 48 hours exposure; for CC50: read-out: LC50 PANC-1
# [3] = system: IGROV-ET; experiment: SRB colorimetric assay of cell growth and viability, IGROV-ET; conditions: 48 hours exposure; for CC50: read-out: LC50 IGROV-ET
# [4] = system: A-549; experiment: SRB colorimetric assay of cell growth and viability, A-549; conditions: 48 hours exposure; for GI50: read-out: GI50 A-549; for CC50: read-out: LC50 A-549
# [5] = system: IGROV-1; experiment: SRB colorimetric assay of cell growth and viability, IGROV-1; conditions: 48 hours exposure
# [6] = system: LNCaP; experiment: SRB colorimetric assay of cell growth and viability, LNCaP; conditions: 48 hours exposure; for GI50: read-out: GI50 LN-caP; for CC50: read-out: LC50 LN-caP
# [7] = system: SK-BR-3; experiment: SRB colorimetric assay of cell growth and viability, SK-BR-3; conditions: 48 hours exposure
# [8] = system: HeLa; experiment: SRB colorimetric assay of cell growth and viability, HeLa; conditions: 48 hours exposure; for CC50: read-out: LC50 HELA
# [9] = system: HeLa-APL; experiment: SRB colorimetric assay of cell growth and viability, HeLa-APL; conditions: 48 hours exposure; for CC50: read-out: LC50 HELA-APL
# [10] = system: SK-MEL-28; experiment: SRB colorimetric assay of cell growth and viability, SK-MEL-28; conditions: 48 hours exposure; for CC50: read-out: LC50 MEL-28
# [11] = system: HT-29; experiment: SRB colorimetric assay of cell growth and viability, HT-29; conditions: 48 hours exposure; for GI50: read-out: GI50 HT-29; for CC50: read-out: LC50 HT-29
# [12] = system: DU-145; experiment: SRB colorimetric assay of cell growth and viability, DU-145; conditions: 48 hours exposure
# [13] = system: LoVo; experiment: SRB colorimetric assay of cell growth and viability, LoVo; conditions: 48 hours exposure; for CC50: read-out: LC50 LOVO
Structure (SMILES),GI50 [1] [µM],TGI K-562 [1] [Molar],CC50 [1] [µM],GI50 [2] [µM],TGI PANC-1 [2] [Molar],CC50 [2] [µM],GI50 [3] [µM],TGI IGROV-ET [3] [Molar],CC50 [3] [µM],TGI A-549 [4] [Molar],GI50 [4] [µM],CC50 [4] [µM],GI50 [5] [µM],LC50 (concentration causing 50% net cell killing) [5] [µM],TGI IGROV [5] [Molar],GI50 [6] [µM],CC50 [6] [µM],GI50 [7] [µM],LC50 [7] [µM],TGI SK-BR-3 [7] [Molar],further results
"C/C=C1\NC(=O)[C@H](Cc2ccccc2)NC(=O)[C@@H](C(C)C)NC(=O)[C@@H]([C@@H](C)CC)NC(=O)[C@H](NC(=O)[C@H](NC(=O)[C@H](CCCN)NC(=O)[C@H]2CCCN2C(=O)[C@H](NC(=O)[C@H](C)NC(=O)[C@@H](NC(=O)[C@H](NC(=O)CCCC(C)C)C(C)C)[C@@H](C)O)C(C)C)[C@@H](C)CC)[C@@H](C)OC(=O)[C@H](C(C)C)NC1=O [Compound 44, [Ala^11]-KF] ({Hexanoyl(5-Me)}-[dV]TA[dV][dP][Orn][d(aIle)][d(aThr)][d(aIle)][dV]F[Dhb]V; ester 8-C)",3.06,6.90E−06,6.9,6.9,6.90E−06,6.9,1.5,2.95E−06,5.77,6.90E−06,2.69,6.9,1.43,5.72,2.86E−06,2.78,6.9,1.19,5.3,2.52E−06,GI50 [8]: 2.85 µM; TGI HELA [8]: 6.90E−06 Molar; CC50 [8]: 6.9 µM; GI50 [9]: 3.18 µM; TGI HELA-APL [9]: 6.90E−06 Molar; CC50 [9]: 6.9 µM; GI50 [10]: 3.69 µM; TGI MEL-28 [10]: 6.90E−06 Molar; CC50 [10]: 6.9 µM; TGI HT-29 [11]: 2.61E−06 Molar; GI50 [11]: 1.34 µM; CC50 [11]: 5.08 µM; GI50 [12]: 3.03 µM; LC50 (concentration causing 50% net cell kill) [12]: 6.9 µM; TGI DU-145 [12]: 6.90E−06 Molar; GI50 [13]: 0.973 µM; TGI LOVO [13]: 2.03E−06 Molar; CC50 [13]: 4.23 µM
"C/C=C1\NC(=O)[C@H](Cc2ccccc2)NC(=O)[C@@H](C(C)C)NC(=O)[C@@H]([C@@H](C)CC)NC(=O)[C@H](NC(=O)[C@H](NC(=O)[C@H](CCCN)NC(=O)[C@H]2CCCN2C(=O)[C@H](NC(=O)[C@H](CC(C)C)NC(=O)[C@@H](NC(=O)[C@H](NC(=O)CCCC(C)C)C(C)C)[C@@H](C)O)C(C)C)[C@@H](C)CC)[C@@H](C)OC(=O)[C@H](C(C)C)NC1=O [Compound 45, [Leu^11]-KF] ({Hexanoyl(5-Me)}-[dV]TL[dV][dP][Orn][d(aIle)][d(aThr)][d(aIle)][dV]F[Dhb]V; ester 8-C)",1.49,3.10E−06,≥ 6.4,2.32,6.70E−06,6.7,0.421,1.30E−06,3.69,1.90E−06,0.925,3.93,0.332,4.02,1.23E−06,1.02,5.44,0.163,1.68,4.10E−07,TGI LN-caP [6]: 2.35E−06 Molar; GI50 [8]: 0.938 µM; TGI HELA [8]: 2.16E−06 Molar; CC50 [8]: 4.98 µM; GI50 [9]: 0.912 µM; TGI HELA-APL [9]: 1.94E−06 Molar; CC50 [9]: 4.13 µM; GI50 [10]: 1.03 µM; TGI MEL-28 [10]: 2.05E−06 Molar; CC50 [10]: 4.11 µM; TGI HT-29 [11]: 1.17E−06 Molar; GI50 [11]: 0.316 µM; CC50 [11]: 3.66 µM; GI50 [12]: 0.731 µM; LC50 (concentration causing 50% net cell kill) [12]: 3.54 µM; TGI DU-145 [12]: 1.61E−06 Molar; GI50 [13]: 0.113 µM; TGI LOVO [13]: 2.32E−07 Molar; CC50 [13]: 0.476 µM
"C/C=C1\NC(=O)[C@H](Cc2ccccc2)NC(=O)[C@@H](C(C)C)NC(=O)[C@@H]([C@@H](C)CC)NC(=O)[C@H](NC(=O)[C@H](NC(=O)[C@H](CCCN)NC(=O)[C@H]2CCCN2C(=O)[C@H](NC(=O)[C@H](NC(=O)[C@@H](NC(=O)[C@H](NC(=O)CCCC(C)C)C(C)C)[C@@H](C)O)C(C)C)C(C)C)[C@@H](C)CC)[C@@H](C)OC(=O)[C@H](C(C)C)NC1=O [Compound 46, [D-Val^11]-KF]",3.04,6.77E−06,≥ 6.77,3.12,6.77E−06,≥ 6.77,1.67,3.62E−06,≥ 6.77,6.77E−06,3.67,≥ 6.77,1.5,≥ 6.77,3.55E−06,2.42,≥ 6.77,1.35,5.62,2.75E−06,TGI LN-caP [6]: 6.77E−06 Molar; GI50 [8]: 4.61 µM; TGI HELA [8]: 6.77E−06 Molar; CC50 [8]: ≥ 6.77 µM; GI50 [9]: 3.3 µM; TGI HELA-APL [9]: 6.77E−06 Molar; CC50 [9]: ≥ 6.77 µM; GI50 [10]: ≥ 6.77 µM; TGI MEL-28 [10]: 6.77E−06 Molar; CC50 [10]: ≥ 6.77 µM; TGI HT-29 [11]: 6.77E−06 Molar; GI50 [11]: 2.5 µM; CC50 [11]: ≥ 6.77 µM; GI50 [12]: 2.43 µM; LC50 (concentration causing 50% net cell kill) [12]: ≥ 6.77 µM; TGI DU-145 [12]: 6.77E−06 Molar; GI50 [13]: 1.2 µM; TGI LOVO [13]: 2.30E−06 Molar; CC50 [13]: 4.4 µM
"C/C=C1\NC(=O)[C@H](Cc2ccccc2)NC(=O)[C@@H](C(C)C)NC(=O)[C@@H]([C@@H](C)CC)NC(=O)[C@H](NC(=O)[C@H](NC(=O)[C@H](CCCN)NC(=O)[C@H]2CCCN2C(=O)[C@H](NC(=O)[C@@H]2CCCN2C(=O)[C@@H](NC(=O)[C@H](NC(=O)CCCC(C)C)C(C)C)[C@@H](C)O)C(C)C)[C@@H](C)CC)[C@@H](C)OC(=O)[C@H](C(C)C)NC1=O [Compound 47, [Pro^11]-KF] ({Hexanoyl(5-Me)}-[dV]TP[dV][dP][Orn][d(aIle)][d(aThr)][d(aIle)][dV]F[Dhb]V; ester 8-C)",6.78,6.78E−06,6.78,5.63,6.78E−06,6.78,6.78,6.78E−06,6.78,6.78E−06,6.78,6.78,6.78,6.78,6.78E−06,3.45,6.78,6.78,6.78,6.78E−06,TGI LN-caP [6]: 6.78E−06 Molar; GI50 [8]: 6.78 µM; TGI HELA [8]: 6.78E−06 Molar; CC50 [8]: 6.78 µM; GI50 [9]: 6.78 µM; TGI HELA-APL [9]: 6.78E−06 Molar; CC50 [9]: 6.78 µM; GI50 [10]: 6.78 µM; TGI MEL-28 [10]: 6.78E−06 Molar; CC50 [10]: 6.78 µM; TGI HT-29 [11]: 6.78E−06 Molar; GI50 [11]: 6.78 µM; CC50 [11]: 6.78 µM; GI50 [12]: 6.78 µM; LC50 (concentration causing 50% net cell kill) [12]: 6.78 µM; TGI DU-145 [12]: 6.78E−06 Molar; GI50 [13]: 5.85 µM; TGI LOVO [13]: 6.78E−06 Molar; CC50 [13]: 6.78 µM
"C/C=C1\NC(=O)[C@H](Cc2ccccc2)NC(=O)[C@@H](C(C)C)NC(=O)[C@@H]([C@@H](C)CC)NC(=O)[C@H](NC(=O)[C@H](NC(=O)[C@H](CCCN)NC(=O)[C@H]2CCCN2C(=O)[C@H](NC(=O)[C@H](CCC(N)=O)NC(=O)[C@@H](NC(=O)[C@H](NC(=O)CCCC(C)C)C(C)C)[C@@H](C)O)C(C)C)[C@@H](C)CC)[C@@H](C)OC(=O)[C@H](C(C)C)NC1=O [Compound 48, [Gln^11]-KF] ({Hexanoyl(5-Me)}-[dV]TQ[dV][dP][Orn][d(aIle)][d(aThr)][d(aIle)][dV]F[Dhb]V; ester 8-C)",6.64,6.64E−06,6.64,5.1,6.64E−06,6.64,6.64,6.64E−06,6.64,6.64E−06,5.82,6.64,6.64,6.64,6.64E−06,3.1,6.64,6.64,6.64,6.64E−06,TGI LN-caP [6]: 6.64E−06 Molar; GI50 [8]: 6.64 µM; TGI HELA [8]: 6.64E−06 Molar; CC50 [8]: 6.64 µM; GI50 [9]: 6.64 µM; TGI HELA-APL [9]: 6.64E−06 Molar; CC50 [9]: 6.64 µM; GI50 [10]: 6.64 µM; TGI MEL-28 [10]: 6.64E−06 Molar; CC50 [10]: 6.64 µM; TGI HT-29 [11]: 6.64E−06 Molar; GI50 [11]: 6.64 µM; CC50 [11]: 6.64 µM; GI50 [12]: 6.64 µM; LC50 (concentration causing 50% net cell kill) [12]: 6.64 µM; TGI DU-145 [12]: 6.64E−06 Molar; GI50 [13]: 5.17 µM; TGI LOVO [13]: 6.64E−06 Molar; CC50 [13]: 6.64 µM
